Source: patent US20230201323A1, “VACCINE FORMULATIONS” (EUUALY S.A., priority 2020, published 2023)
Where a SMILES comes first, the peptide text is derived from it.

Legend:
C57BL/6 female mice = test system: C57BL/6 female mice
Procedure: C57BL/6 female mice are treated with an injection of 100 μl containing 200 μg of peptide encompassing amino acid residues […], namely:
and 100 μl of complete Freund's adjuvant. In addition, […] of pertussis toxin is administered intraperitoneally on days 0 and 2 to permeate the blood-brain barrier.
One month after the date of disease induction, the spinal cord is examined for inflammatory infiltrates. Tissues are fixed in formaldehyde and stained with hematoxilin-eosin for cell counting. T cells are identified using an anti-CD3 antibody. Demyelination is detected by staining with Luxol Fast Blue (LFB).
To establish that cells of the present invention exert a suppressive effect on pathogenic T cells, two group of C57BL/6 female mice was treated by 4 weekly subcutaneous injections of 100 μg of peptide
corresponding to peptide of SEQ ID NO:5 but containing a redox motif (in bold). These injections were made with a formulation containing aluminum hydroxide as adjuvant.
A second group of mice immunized with peptide of SEQ ID NO:6 was then treated as in the positive control group, namely peptide of SEQ ID:5 with complete Freund's adjuvant and pertussis toxin.

[1] = test system: Thy1.1 CD4+ T cells obtained by immunisation with peptide of SEQ ID NO:1; experiment: Mixed culture of Thy1.1 and Thy1.2 CD4+ T cells on antigen-presenting cells loaded with peptide of SEQ ID NO:1; type: cell-based, C57BL/6 mice; conditions: 1/1 mixture with Thy1.2 CD4+ T cells elicited by SEQ ID NO:2, 7 days of culture
Procedure: Next, to determine whether CD4+ T cells obtained by immunisation with peptide of SEQ ID NO:2 could suppress pathogenic CD4+ T cells obtained by immunisation with peptide of SEQ ID NO:1, mixed cultures were performed with antigen-presenting cells loaded with peptide of SEQ ID NO:1. For such in vitro experiments, the two CD4+ T cell populations were obtained from C57BL/6 mice expressing either the Thy1.1 or the Thy1.2 surface phenotypic marker, identified by specific antibodies.
Dendritic cells converted from peripheral blood monocytes were used as antigen-presenting cells. Thus, 50×10^6 cells were incubated with 10 μg of peptide of SEQ ID NO:1 for 16 h at room temperature, washed and then incubated with a 1/1 mixture of Thy1.1 CD4+ T cells obtained by immunisation with peptide of SEQ ID NO:1 and Thy1.2 CD4+ T cells obtained by immunisation with peptide of SEQ ID NO:2. The phenotype of each CD4+ T cell population was then evaluated after 7 days of culture.

wildtype C57BL/6 mice = experiment: IV transfer of peptide-elicited CD4+ T cells into wildtype C57BL/6 mice, spinal cord examination; type: in vivo; conditions: 10^6 peptide-elicited CD4+ T cells per mouse IV, spinal cord ten days afterwards
Procedure: Such cells are then administered by IV injection in wildtype C57BL/6 mice (10^6 cells per mouse). Ten days afterwards, mice are sacrificed and the spinal cord isolated.
In a control experiment, 10^6 cells are administered by IV injection in wildtype C57BL/6 mice.

[2] = test system: AQP4-specific CD4+ T cells; experiment: Phenotype of CD4+ T cells from AQP4 KO C57BL/6 mice immunized with AQP4 peptide; type: in vivo
Procedure: The C57BL/6 (H-2b) strain is the elective animal model as its natural repertoire of CD4+ T cells contains cells activable by immunisation with AQP4 epitopes whose sequences are entirely superposable to those activating human CD4+ T cells. Besides, the homology between human and mouse AQP4 is 93%. However, due to natural tolerance to AQP4, it remains difficult to generate T cells with a pathogenic potential. Therefore, C57BL/6 mice lacking expression of AQP4 (AQP4 KO) are used.
is used at 100 μg emulsified in complete Freund's adjuvant to immunize AQP4 KO C57BL/6 mice in the footpad, followed by 3 injections of 100 μg in incomplete Freund's adjuvant at 10-days intervals. Four weeks after the last injection, the mice are sacrificed and splenocytes are prepared. After separation of CD4+ T cells from the bulk splenocytes, lymphocytes specific for peptide of SEQ ID NO:1 are isolated by incubation with magnetic beads coated with class II (H2b) molecules loaded with peptide of SEQ ID NO:1.
AQP4-specific CD4+ T cells are then phenotyped and found to belong to the Th17 subtype.
A similar experiment is carried out in AQP4 KO C57BL/6 mice immunized with the same peptide, but containing a redox motif (in bold) in its flanking residues (SEQ ID NO:2), and with alum instead of CFA/IFA

[3] = test system: cells obtained by stimulation with peptide of SEQ ID NO:7; experiment: Coculture of CFSE-labelled SEQ ID NO:7 cells with SEQ ID NO:8 cells, proliferation by CFSE dilution; type: cell-based, Balb/c mice
Procedure: Cells obtained by stimulation with peptide of SEQ ID NO:7 were labelled with CFSE and cultured together with cells obtained with peptide of SEQ ID NO:8 at a 1 to 1 ratio on antigen-presenting cells loaded with peptide of SEQ ID NO:7.
After 7 days of coculture, the proliferation of cells was measured by CFSE dilution.

CD4+ T cells = experiment: Phenotype and cytokine production of Balb/c CD4+ T cells expanded in vitro with Staph. aureus nuclease peptides; type: cell-based, Balb/c mice; conditions: after 2 cycles of stimulation on peptide-loaded antigen-presenting cells
Procedure: Balb/c mice kept under open conditions (not pathogen-free) show specific antibodies and CD4+ T cells towards Staph. aureus nuclease. Splenocytes are obtained from such mice to prepare CD4+ T cells. Such cells are cultured and expanded in the presence of antigen-presenting cells loaded with either peptide of sequence
After 2 cycles of stimulation, the phenotype and cytokine production of cells are examined. […] Other markers of CD4+ T cells with an immune suppressive function include DLL4 (Rubey et al. Diabetes 2020 69(5):915-926, CTLA2 (Sugita et al. J Immunol 2009 183(8):5013-22), TGF-beta2 (Mir et al. Immunology 2015 146(4):547-56, arginase (Khoshnejad et al. Mol Ther Methods Clin Dev 2020 18:652-663 and meteorin (Baht et al. Nat Metab 2020 2(3):278-289)

NOD mice = experiment: Insulitis by pancreas histology in immunized NOD mice; type: in vivo; conditions: female NOD mice, 100 μg in aluminium hydroxide four times at a week interval from six weeks old, histology at week 15
Description: Non-obese diabetes (NOD) mice are the most used animal model for diabetes due to the spontaneous development of insulitis, hyperglycaemia and diabetes in a context wherein both inflammation and auto-immunity play determining roles. The local lesion, insulitis, starts accumulating after a few weeks, so that therapeutic interventions should be considered as suppressive rather than preventive.
Six-weeks old female NOD mice are immunized with a peptide made of a class II-restricted T cell epitope of GAD65 (319-333: ILEVKQKGFVPFLVS, SEQ ID NO:3) or with the same peptide containing a redox motif (bold figures) in its flanking residues
Immunisation is carried out using 100 μg of peptide of SEQ ID NO:4 in aluminium hydroxide, four times at a week interval. Control mice receive peptide of SEQ ID NO:3 according to the same injection schedule.
Mice are then sacrificed at week 15, the pancreas is isolated and evaluated by histology to identify insulitis.

[4] = test system: CD4+ obtained from the spleen of mice immunized with peptide of SEQ ID NO:3; experiment: Co-culture of CFSE-labelled CD4+ cells (SEQ ID NO:3) with CD4+ T cells from mice immunized with SEQ ID NO:4; type: cell-based, NOD mice
[5] = AQP4 KO C57BL/6 mice immunized with peptide in alum

## CC[C@H](C)[C@H](NC(=O)CNC(=O)[C@@H](NC(=O)[C@H](CS)NC(=O)[C@@H]1CCCN1C(=O)[C@H](Cc1ccc(O)cc1)NC(=O)[C@H](CS)NC(=O)[C@@H](N)Cc1c[nH]cn1)[C@@H](C)O)C(=O)N[C@@H](CC(C)C)C(=O)N[C@@H](CC(=O)O)C(=O)N[C@@H](CO)C(=O)N[C@H](C(=O)NCC(=O)N[C@@H](CCCNC(=N)N)C(=O)N[C@@H](Cc1ccccc1)C(=O)N[C@@H](Cc1ccccc1)C(=O)N[C@@H](CO)C(=O)NCC(=O)O)[C@@H](C)CC [SEQ ID NO:6, HCYPCTGILDSIGRFFSG] (H-HCYPCTGILDSIGRFFSG-OH)
C57BL/6 female mice; 4 weekly subcutaneous injections of 100 μg with aluminum hydroxide, no disease induction
  signs of disease after immunisation alone: no signs of disease

## HCPYCSIMVAFKGVWTQAFWKAV (AQP4redox; (9)..(20) core epitope) [SEQ ID NO:2, same AQP4 peptide containing a redox motif in its flanking residues]
[1]
  phenotype of Thy1.1 CD4+ T cells (SEQ ID NO:1-elicited) in mixed culture: lost their phenotypic characteristics of Th17 cells
  proliferation of Thy1.1 CD4+ T cells (SEQ ID NO:1-elicited) in mixed culture: no proliferation
Wildtype C57BL/6 mice
  spinal cord inflammatory lesions / infiltration: no inflammatory lesions or T lymphocytes
[2]; [5]
  factors produced by CD4+ T cells obtained from the spleen: PGE2 (prostaglandin E2) and IL-10
  markers characterizing CD4+ T cells obtained from the spleen: TIGIT and CTLA2

## HCYPCHNTHEQHLRKS (Sa Nucleaseredox) [SEQ ID NO:8, Staph. aureus nuclease peptide containing a redox motif]
[3]; 1 to 1 ratio, antigen-presenting cells loaded with SEQ ID NO:7, 7 days of coculture
  proliferation of SEQ ID NO:7-obtained cells in presence of SEQ ID NO:8-obtained cells (CFSE dilution): do not proliferate
[3]; 7 days of coculture on antigen-presenting cells loaded with SEQ ID NO:7
  phenotype of SEQ ID NO:8-obtained cells after coculture: unchanged phenotype
CD4+ T cells
  cytokine production of cells obtained by stimulation: IL-4, IL-10, IL-13 and amphiregulin (AREG)
  surface expression on cells obtained by stimulation: TIGIT and BLIMP-1

## HCYPCILEVKQKGFVPF (GAD65redox) [SEQ ID NO:4]
NOD mice
  islets with no sign of inflammation or cellular infiltrate: > 70%
[4]; cells recovered from co-culture with SEQ ID NO:4-elicited CD4+ T cells
  capacity of recovered CFSE-labeled cells to proliferate upon presentation of cognate epitope (SEQ ID NO:3): lost their capacity to proliferate
[4]; co-culture with CD4+ T cells from spleen of mice immunized with SEQ ID NO:4
  reduction in numbers of CFSE-labelled CD4+ cells (SEQ ID NO:3) by co-culture: circa 5%

## ILEVKQKGFVPFLVS (GAD65 epitope) [SEQ ID NO:3, reference compound]
NOD mice
  islets with no sign of inflammation or cellular infiltrate: the reverse

## NTHEQHLRKS (Sa Nuclease) [SEQ ID NO:7, Staph. aureus nuclease peptide, no redox motif, reference compound]
CD4+ T cells
  cytokine production of cells obtained by stimulation: interferon gamma (IFN-γ)
  phenotype of cells obtained by stimulation: characteristics of Th1 cells

## SIMVAFKGVWTQAFWKAV (AQP4 epitope; (4)..(15) core epitope) [SEQ ID NO:1, peptide encompassing amino acid residues 21-38 of AQP4, no redox motif, reference compound]
Wildtype C57BL/6 mice
  spinal cord inflammatory lesions / infiltration: Infiltration with inflammatory cells, including AQP4-specific CD4+ T cells is observed
[2]; AQP4 KO C57BL/6 mice, 100 μg in CFA then 3 x 100 μg in IFA, splenocytes four weeks after last injection
  subtype of AQP4-specific CD4+ T cells: Th17 subtype

## TGILDSIGRFFSG (MBP) [SEQ ID NO:5]
C57BL/6 female mice; SEQ ID NO:5 = disease induction, SEQ ID NO:6 = 4 weekly sc 100 μg in aluminum hydroxide before induction
  demyelination by Luxol Fast Blue (LFB) staining: signs of demyelination
C57BL/6 female mice; hematoxilin-eosin and anti-CD3, SEQ ID NO:5 = disease induction, SEQ ID NO:6 = 4 weekly sc 100 μg in aluminum hydroxide before induction
  T lymphocyte / inflammatory infiltrates in the spinal cord: significant infiltrates including T lymphocytes
